# Columns and labels:
# GST-JAK2(808-1132) = target: T1, GST-JAK2(808-1132) (Homo sapiens, UniProt O60674); assay: JAK2 kinase assay (Caliper mobility shift, LabChip 3000); format: biochemical
# T1 construct: GST-JAK2(808-1132); purchased Invitrogen (Carlsbad, USA) #4288
# How it was run: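 Recombinant GST-JAK2(808-1132) kinase domain with FITC-labelled JAK3tide peptide substrate and ATP; 60 min at 30 °C, EDTA stop. Substrate/product ratio read by microfluidic mobility shift; compounds at 8 final concentrations, 10 to 0.003 μM.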
# [1] = system: JAK1/JAK2-dependent nuclear translocation of STAT1-GFP in HT1080 fibrosarcoma cells; assay: STAT1 nuclear translocation assay (Cellomics), IFN-γ stimulated HT1080 STAT1-GFP cells; format: cell-based; settings: Homo sapiens, HT-1080, STAT1 translocation pathway
# How it was run: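 HT1080 cells stably expressing STAT1-GFP, pre-treated 30 min with compound (10 μM–0.003 μM, 0.1% DMSO), then stimulated 2 h with 100 ng/ml IFN-γ, fixed and Hoechst-stained. Nuclear-cytoplasmic GFP differential imaged over ≥1000 cells/well, normalised to unstimulated and DMSO-stimulated wells for IC50.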
# T1 sequence (O60674 808-1132): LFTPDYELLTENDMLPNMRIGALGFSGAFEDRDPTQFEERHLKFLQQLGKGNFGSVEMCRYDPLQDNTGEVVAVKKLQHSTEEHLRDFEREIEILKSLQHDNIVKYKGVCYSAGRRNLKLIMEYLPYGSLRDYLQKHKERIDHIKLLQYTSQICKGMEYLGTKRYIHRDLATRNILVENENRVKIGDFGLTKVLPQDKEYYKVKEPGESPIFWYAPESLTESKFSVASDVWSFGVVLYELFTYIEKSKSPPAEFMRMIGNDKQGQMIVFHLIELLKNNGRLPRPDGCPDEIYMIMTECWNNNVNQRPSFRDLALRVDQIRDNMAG
Structure (SMILES),IC50 (GST-JAK2(808-1132)) [nM],IC50 [1] [nM]
"Cc1ccc(Nc2ncc3ccn(-c4ccc(C(=O)N5CCN(C)CC5)c(F)c4)c3n2)cc1C [Example 155, {4-[2-(3,4-Dimethyl-phenylamino)-pyrrolo[2,3-d]pyrimidin-7-yl]-2-fluoro-phenyl}-(4-methyl-piperazin-1-yl)-methanone]",200,3280
"Cc1ccc(Nc2ncc3ccn(-c4cc(F)c(CN5CCOCC5(C)C)c(F)c4)c3n2)cc1C [Example 309, {7-[4-(3,3-Dimethyl-morpholin-4-ylmethyl)-3,5-difluoro-phenyl]-7H-pyrrolo[2,3-d]pyrimidin-2-yl}-(3,4-dimethyl-phenyl)-amine]",780,4160
"O=C(c1ccc(Nc2ncc3ccn(-c4ccc(CN5CCOCC5)c(F)c4)c3n2)cc1)N1CCOCC1 [Example 157, {4-[7-(3-Fluoro-4-morpholin-4-ylmethyl-phenyl)-7H-pyrrolo[2,3-d]pyrimidin-2-ylamino]-phenyl}-morpholin-4-yl-methanone]",6.1,130
"CCOc1ccc(Nc2ncc3ccn(-c4ccc(CN5CCOCC5)c(Cl)c4)c3n2)cc1OCC [Example 177, [7-(3-Chloro-4-morpholin-4-ylmethyl-phenyl)-7H-pyrrolo[2,3-d]pyrimidin-2-yl]-(3,4-diethoxy-phenyl)-amine]",5.3,1040
"COc1ccc(Nc2ncc3ccn(-c4ccc(C(=O)N5CCS(=O)(=O)CC5)cc4)c3n2)cn1 [Example 250, (1,1-Dioxido-thiomorpholin-4-yl)-{4-[2-(6-methoxy-pyridin-3-ylamino)-pyrrolo[2,3-d]pyrimidin-7-yl]-phenyl}-methanone]",9.1,940
"O=C(c1ccc(-n2ccc3cnc(Nc4cccnc4)nc32)cc1F)N1CCOCC1 [Example 224, {2-Fluoro-4-[2-(pyridin-3-ylamino)-pyrrolo[2,3-d]pyrimidin-7-yl]-phenyl}-morpholin-4-yl-methanone]",8.5,1080
"Cc1ccc(Nc2ncc3ccn(-c4cc(F)c(C(=O)N5CCOCC5)c(F)c4)c3n2)cn1 [Example 219, {2,6-Difluoro-4-[2-(6-methyl-pyridin-3-ylamino)-pyrrolo[2,3-d]pyrimidin-7-yl]-phenyl}-morpholin-4-yl-methanone]",7.7,518
"O=C(c1c(F)cc(-n2ccc3cnc(Nc4ccncc4)nc32)cc1F)N1CCOCC1 [Example 217, {2,6-Difluoro-4-[2-(pyridin-4-ylamino)-pyrrolo[2,3-d]pyrimidin-7-yl]-phenyl}-morpholin-4-yl-methanone]",7.3,993
"C[C@@H]1CN(Cc2ccc(Nc3ncc4ccn(-c5cc(F)c(CN6CCOCC6)c(F)c5)c4n3)cc2)[C@@H](C)CN1 (racemic) [Example 260, [7-(3,5-Difluoro-4-morpholin-4-ylmethyl-phenyl)-7H-pyrrolo[2,3-d]pyrimidin-2-yl]-[4-((2S,5R)-2,5-dimethyl-piperazin-1-ylmethyl)-phenyl]-amine]",5,280
"CN1CCN(C(=O)c2ccc(Nc3ncc4ccn(-c5ccc(CN6CCOCC6)c(F)c5)c4n3)cc2F)CC1 [Example 158, {2-Fluoro-4-[7-(3-fluoro-4-morpholin-4-ylmethyl-phenyl)-7H-pyrrolo[2,3-d]pyrimidin-2-ylamino]-phenyl}-(4-methyl-piperazin-1-yl)-methanone]",9.4,265
"COc1cc(Nc2ncc3ccn(-c4ccc(C(=O)N5CCOCC5)c(F)c4)c3n2)ccc1Cl [Example 295, {4-[2-(4-Chloro-3-methoxy-phenylamino)-pyrrolo[2,3-d]pyrimidin-7-yl]-2-fluoro-phenyl}-morpholin-4-yl-methanone]",14.5,795
"C[C@@H]1CN(c2ccc(Nc3ncc4ccn(-c5ccc(S(C)(=O)=O)cc5)c4n3)cn2)C[C@H](C)N1 [Example 273, [6-(cis-3,5-Dimethyl-piperazin-1-yl)-pyridin-3-yl]-[7-(4-methanesulfonyl-phenyl)-7H-pyrrolo[2,3-d]pyrimidin-2-yl]-amine]",6,190
"CN1CCN(C(=O)Cc2ccc(-n3ccc4cnc(Nc5ccc(C(F)(F)F)cc5)nc43)cc2)CC1 [Example 145, 1-(4-Methyl-piperazin-1-yl)-2-{4-[2-(4-trifluoromethyl-phenylamino)-pyrrolo[2,3-d]pyrimidin-7-yl]-phenyl}-ethanone]",7,365
"Cc1ccc(Nc2ncc3ccn(-c4ccc(C(=O)NCCN5CCOCC5)c(F)c4)c3n2)cc1C [Example 297, 4-[2-(3,4-Dimethyl-phenylamino)-pyrrolo[2,3-d]pyrimidin-7-yl]-2-fluoro-N-(2-morpholin-4-yl-ethyl)-benzamide]",30,2140

# These reach a lower IC50 (GST-JAK2(808-1132)). Values come first.
IC50 (GST-JAK2(808-1132)) [nM],IC50 [1] [nM],Structure (SMILES)
< 3,40,"OCCN1CCN(c2ccc(Nc3ncc4ccn(-c5cc(F)c(CN6CCOCC6)c(F)c5)c4n3)cn2)CC1 [Example 265, 2-(4-{5-[7-(3,5-Difluoro-4-morpholin-4-ylmethyl-phenyl)-7H-pyrrolo[2,3-d]pyrimidin-2-ylamino]-pyridin-2-yl}-piperazin-1-yl)-ethanol]"
≤ 3,151,"Cc1ccc(Nc2ncc3ccn(-c4cc(F)c(CN5CCNC(=O)C5)c(F)c4)c3n2)cc1CN1CCN(C)CC1 [Example 343, 4-(2,6-Difluoro-4-{2-[4-methyl-3-(4-methyl-piperazin-1-ylmethyl)-phenylamino]-pyrrolo[2,3-d]pyrimidin-7-yl}-benzyl)-piperazin-2-one]"
< 3,176,"CCN1CCN(Cc2ccc(Nc3ncc4ccn(-c5cc(F)c(CN6CCOCC6)c(F)c5)c4n3)cc2)CC1 [Example 196, [7-(3,5-Difluoro-4-morpholin-4-ylmethyl-phenyl)-7H-pyrrolo[2,3-d]pyrimidin-2-yl]-[4-(4-ethyl-piperazin-1-ylmethyl)-phenyl]-amine]"
< 3,275,"CC(C)Oc1ccc(Nc2ncc3ccn(-c4ccc(CC(=O)N5CCOCC5)cc4)c3n2)cc1 [Example 102, 2-{4-[2-(4-Isopropoxy-phenylamino)-pyrrolo[2,3-d]pyrimidin-7-yl]-phenyl}-1-morpholin-4-yl-ethanone]"
3.8,32,"CCN(CC)C(=O)N1CCN(c2ccc(Nc3ncc4ccn(-c5ccc(S(C)(=O)=O)cc5)c4n3)cc2)CC1 [Example 13, 4-{4-[7-(4-Methanesulfonyl-phenyl)-7H-pyrrolo[2,3-d]pyrimidin-2-ylamino]-phenyl}-piperazine-1-carboxylic acid diethylamide]"
3.8,259,"CN1CCN(C(=O)c2ccc(Nc3ncc4ccn(-c5ccc(S(C)(=O)=O)cc5)c4n3)cc2Cl)CC1 [Example 94, {2-Chloro-4-[7-(4-methanesulfonyl-phenyl)-7H-pyrrolo[2,3-d]pyrimidin-2-ylamino]-phenyl}-(4-methyl-piperazin-1-yl)-methanone]"
< 3,55,"O=C(c1ccc(Nc2ncc3ccn(-c4cc(F)c(CN5CCS(=O)(=O)CC5)c(F)c4)c3n2)cc1)N1CCOCC1 [Example 187, (4-{7-[4-(1,1-Dioxido-thiomorpholin-4-ylmethyl)-3,5-difluoro-phenyl]-7H-pyrrolo[2,3-d]pyrimidin-2-ylamino}-phenyl)-morpholin-4-yl-methanone]"

# Reference: patent US8420657B2 (Novartis AG, priority 2008, dated 2013)
